pIC50: −log10 of the molar value. Like-named read-outs stand apart in the source and are kept apart here.
What was measured:
[1] = target: T1, APN (Microsomal Leucine aminopeptidase from porcine kidney EC 3.4.11.2) (Sus scrofa, UniProt P15145); assay: APN inhibitory activity, spectrophotometry with L-leucine-p-nitroanilide; format: biochemical; settings: for pIC50: read-out: IC50 Experimental; for IC50: logarithm of IC50 in µmol/L, read-out: Log IC50 Experimental (converted)
T1 construct: Microsomal Leucine aminopeptidase from porcine kidney EC 3.4.11.2, Type IV-S, ammonium sulfate suspension; purchased Sigma-Aldrich; host or cells: porcine kidney (tissue-derived, microsomal)
T1 sequence (P15145 1-963): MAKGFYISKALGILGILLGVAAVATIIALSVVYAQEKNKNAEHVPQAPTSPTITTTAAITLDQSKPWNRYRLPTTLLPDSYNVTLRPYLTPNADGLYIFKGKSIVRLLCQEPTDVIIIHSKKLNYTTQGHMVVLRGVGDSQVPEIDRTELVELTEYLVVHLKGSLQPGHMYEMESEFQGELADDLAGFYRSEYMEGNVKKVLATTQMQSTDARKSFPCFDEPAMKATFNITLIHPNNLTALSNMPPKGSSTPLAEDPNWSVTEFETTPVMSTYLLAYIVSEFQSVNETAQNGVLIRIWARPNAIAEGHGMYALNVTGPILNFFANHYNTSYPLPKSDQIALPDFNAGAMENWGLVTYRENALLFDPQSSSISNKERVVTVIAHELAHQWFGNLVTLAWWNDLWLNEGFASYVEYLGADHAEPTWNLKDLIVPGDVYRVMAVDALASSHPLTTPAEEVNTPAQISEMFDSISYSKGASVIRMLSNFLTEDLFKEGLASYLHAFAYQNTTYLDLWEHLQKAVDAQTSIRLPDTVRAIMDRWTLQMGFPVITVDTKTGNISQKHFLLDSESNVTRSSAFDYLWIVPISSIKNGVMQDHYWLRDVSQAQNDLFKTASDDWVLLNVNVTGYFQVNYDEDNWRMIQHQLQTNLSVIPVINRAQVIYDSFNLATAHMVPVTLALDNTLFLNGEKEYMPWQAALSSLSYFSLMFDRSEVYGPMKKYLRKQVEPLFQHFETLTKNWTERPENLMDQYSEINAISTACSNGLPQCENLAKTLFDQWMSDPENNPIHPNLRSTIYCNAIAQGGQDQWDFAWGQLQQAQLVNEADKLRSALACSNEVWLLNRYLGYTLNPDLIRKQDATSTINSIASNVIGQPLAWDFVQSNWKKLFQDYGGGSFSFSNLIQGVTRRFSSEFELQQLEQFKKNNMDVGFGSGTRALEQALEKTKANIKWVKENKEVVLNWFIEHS
Method: APN inhibitory activity was determined using a standardized spectrophotometry protocol using L-leucine-p-nitroanilide as a chromogenic substrate for APN. Measurements were performed in triplicate at 405 nm at a Cytation 3 well-plate reader.
In some compounds, solubility problems occurred, which complicated the inhibition activity determination. We overcame these either by the use of cosolvents or by an alternative HPLC approach. The details are summarized in the Supplementary Materials.
IC50 values against enzyme APN were determined using L-Leucine-p-nitroanilide (Sigma-Aldrich, Darmstadt, Germany) as the substrate and Microsomal Leucine aminopeptidase from porcine kidney EC 3.4.11.2, Type IV-S, ammonium sulfate suspension, 10–40 units/mg protein (Sigma-Aldrich, Darmstadt, Germany). The assay was performed by a Cytation 3 Cell Imaging Multi-Mode Reader (BioTek Instruments, Inc., Winooski, VT, USA) with appropriate Gen-5 software in 96-well plates. A 0.02 mol/L TRIS-HCl buffer solution at pH 7.5 was used as the assay buffer. All tested compounds were dissolved in TRIS-HCl buffer solution and compounds with poor solubility were dissolved in a small amount of DMSO or NMP used as a cosolvent. The assay mixture, which contained a variable amount of inhibitor solution (from 0 up to 80 μL), 10 μL of the enzyme solution, 5 μL of the substrate solution, and the assay buffer adjusted to 200 μL, was incubated at 37 °C for 40 min with short orbital shaking for 10 s. The hydrolysis of the substrate was monitored by the optical photometric method of absorbance in the visible and ultraviolet regions at a wavelength of 405 nm. The enzyme activity inhibitory rate was calculated from the measures of absorbance. The results of the 50% inhibitory activity of the enzyme (IC50) were determined through a regression analysis of the concentration/absorbance data by GraFit 5 software (Erithacus Software Ltd., East Grinstead, UK).

DU-145 cells = assay: WST-1 analysis of cell proliferation, DU-145; format: cell-based, human; settings: for Proliferation of control: 48 h
Method: (§1) The results are shown in Table 4, Figure 2, and the Supplementary Materials.
(§2) A human monocytic leukemia cell line (THP-1), human breast adenocarcinoma cells (MCF-7), and human prostate cancer (DU-145) cell line were obtained from ATCC. THP-1 and DU-145 cells were cultivated in an RPMI 1640 culture medium and MCF-7 cells were cultivated in a DMEM medium, both supplemented with the antibiotic solution (100 U/mL of penicillin, 100 µg/mL of streptomycin) and 10% FBS. Cells were maintained in a humidified incubator with 5% CO2 at 37 °C and were regularly tested for the presence of mycoplasma contamination.
(§3) THP-1, MCF-7, and DU-145 cells were seeded in 96-well plates. Adherent cell lines were allowed to attach to the wells for 24 h. Cells were then treated with various concentrations of tested compounds to reach the final concentrations ranging between 1 µM and 100 µM and were incubated for 48 h. Cell proliferation was determined using Cell Proliferation Reagent WST-1 (2-(4-iodophenyl)-3-(4-nitrophenyl)-5-(2,4-disulfophenyl)-2H-tetrazolium) (Roche Diagnostics, Mannheim, Germany), as previously described. WST-1 analysis was performed in three independent experiments, with each condition tested in triplicate. The IC50 values were determined using the nonlinear regression four-parameter logistic model using GraphPad Prism 5.00 software (GraphPad Software, San Diego, CA, USA). Statistical significance between the values was assessed by one-way analysis of variance (ANOVA) paired with Dunnett’s post hoc test using GraphPad Prism 5.00 software (GraphPad Software, San Diego, CA, USA) at levels of * p < 0.05, ** p < 0.01, and *** p < 0.001.

THP-1 cells = assay: WST-1 analysis of cell proliferation, THP-1; format: cell-based, human; settings: for Proliferation of control: 48 h
Method: as §1, §2, §3

MCF-7 cells = assay: WST-1 analysis of cell proliferation, MCF-7; format: cell-based, human; settings: for Proliferation of control: 48 h
Method: as §1, §2, §3

[2] = TRIS-HCl buffer pH 7.5, 37 °C, 40 min, no cosolvent noted

Compound `CC(=NNC(N)=S)c1ccccc1NC(=O)CN1CCCCC1` [22-6-1] has a pIC50 [1, 2] of 3.11.

With `CC(=NNC(N)=O)c1ccc(NC(=O)CN2CCCCC2)cc1` [34-6-1, 4-[2-(piperidine-1-yl)acetamido]acetophenone semicarbazone] the pIC50 [1, 2] was 4.74, the IC50 [1] was 18.4 µM and the Proliferation of control (DU-145 cells; DU-145, 1 μmol/l) was 98.33%. The Proliferation of control (DU-145 cells; DU-145, 5 μmol/l) was 98.26%, the Proliferation of control (DU-145 cells; DU-145, 10 μmol/l) was 97.24% and the Proliferation of control (DU-145 cells; DU-145, 30 μmol/l) was 97.25%. The Proliferation of control (DU-145 cells; DU-145, 50 μmol/l) was 96.59%, the Proliferation of control (DU-145 cells; DU-145, 75 μmol/l) was 99.61% and the Proliferation of control (DU-145 cells; DU-145, 100 μmol/l) was 99.25%. The “antiproliferative effect (in words)” value (DU-145 cells; DU-145, no APN expression) was “did not affect proliferation at all”, the pIC50 (DU-145 cells; Homo sapiens, DU-145, 48 h incubation) was < 4.00 and the pIC50 (THP-1 cells; Homo sapiens, THP-1, 48 h incubation) was < 4.00. The Proliferation of control (THP-1 cells; THP-1, 1 μmol/l) was 97.78%, the Proliferation of control (THP-1 cells; THP-1, 5 μmol/l) was 97.58% and the Proliferation of control (THP-1 cells; THP-1, 10 μmol/l) was 93.87%. For the same compound, the Proliferation of control (THP-1 cells; THP-1, 30 μmol/l) was 86.64%, the Proliferation of control (THP-1 cells; THP-1, 50 μmol/l) was 73.78% and the Proliferation of control (THP-1 cells; THP-1, 75 μmol/l) was 71.38%. The Proliferation of control (THP-1 cells; THP-1, 100 μmol/l) was 69.17%, the pIC50 (MCF-7 cells; Homo sapiens, MCF7, MCF-7, 48 h incubation) was < 4.00 and the Proliferation of control (MCF-7 cells; MCF-7, 1 μmol/l) was 100.09%. It also gave a Proliferation of control (MCF-7 cells; MCF-7, 5 μmol/l) of 96.80%, a Proliferation of control (MCF-7 cells; MCF-7, 10 μmol/l) of 97.62% and a Proliferation of control (MCF-7 cells; MCF-7, 30 μmol/l) of 96.30%. For the same compound, the Proliferation of control (MCF-7 cells; MCF-7, 50 μmol/l) was 99.57%, the Proliferation of control (MCF-7 cells; MCF-7, 75 μmol/l) was 85.41% and the Proliferation of control (MCF-7 cells; MCF-7, 100 μmol/l) was 81.17%.

Compound `CC(=NNC(N)=S)c1ccccc1NC(=O)CN1CCCCCC1` [22-7-1] has a pIC50 [1, 2] of 3.77 and an IC50 [1] of 169 µM.

In the case of `CC(=O)c1ccc(NC(=O)CN2CCOCC2)cc1` [14-8-1], the pIC50 [1, 2] was 3.37.

In the case of `CC(=NNC(N)=O)c1ccc(NC(=O)CN2CCOCC2)cc1` [34-8-1], the pIC50 [1, 2] was 2.78, the IC50 [1] was 1640 µM and the melting point was 231.1 to 231.8 °C.

`CC(=NNC(N)=S)c1ccc(NC(=O)CN2CCCCC2)cc1` [24-6-1] gave a pIC50 ([1]; NMP as a cosolvent) of 2.81 and an IC50 [1] of 1550 µM.

In the case of `CC(=O)c1ccc(NC(=O)CN2CCN(Cc3ccccc3)CC2)cc1` [14-10-1], the pIC50 ([1]; DMSO as a cosolvent) was 3.37.

Compound `CC(=NNC(N)=S)c1ccc(NC(=O)CN2CCOCC2)cc1` [24-8-1, 4-[(morpholine-4-yl)acetamido]acetophenone thiosemicarbazone] has an IC50 [1] of 6.79 µM.

With `CCN(CC)CC(=O)Nc1ccc(C(C)=O)cc1` [14-2-1] the pIC50 ([1]; DMSO as a cosolvent) was 3.44 and the IC50 [1] was 366 µM.

With `CC(=NNC(N)=S)c1ccc(NC(=O)CN2CCCC2)cc1` [24-5-1] the pIC50 ([1]; NMP as a cosolvent) was 4.45 and the IC50 [1] was 35.6 µM.

Compound `CCCCN(CCCC)CC(=O)Nc1ccc(C(C)=NNC(N)=S)cc1` [24-4-1] has a pIC50 ([1]; NMP as a cosolvent) of 2.77 and an IC50 [1] of 1680 µM.

Work on `CCCN(CCC)CC(=O)Nc1ccc(C(C)=NNC(N)=S)cc1` [24-3-1] yielded a pIC50 [1, 2] of 2.90 and an IC50 [1] of 1270 µM.

For `CC(=NNC(N)=S)c1ccc(NC(=O)CN2CCCCCC2)cc1` [24-7-1], the pIC50 [1, 2] was 4.36 and the IC50 [1] was 44.1 µM.

With `CC(=O)c1ccc(NC(=O)CN2CCCCC2)cc1` [14-6-1] the pIC50 [1, 2] was 3.76.
